Test results published in US20260048075A1, “Inhibition of TCF4/ITF2 in the Treatment of Cancer” (VIB VZW, priority 2022, published 2026).
Read-outs that look alike come from different tables or passages of the source.

Columns and labels:
TCF4 locus = assay: OmniATAC-seq chromatin accessibility; format: cell-based, human; settings: MM057 cells; ARV-771 100 nM
Procedure: Approximately […] MM057 cells were plated in a 6-well plate and treated with ARV-771 100 nM after 24 hours. Forty eight hours after plating, cells were collected. Nuclei of 50,000 cells were isolated and an Omni-assay for transposase-accessible chromatin using sequencing (OmniATAC-seq) was performed as described previously (Corces et al. 2017, Nat Methods 14:959-962). After final amplification, samples were cleaned up with MinElute (QIAGEN) and libraries were prepared using the KAPA Library Quantification Kit (supplier). Samples were sequenced on an IlluminaNextSeq 500 High Output chip. Briefly, reads were mapped to human genome (GRCh37) using STAR (2.7.1a-foss-2018a). Resulting BAMfiles were cleaned for duplicates using Picard (2.21.8-Java-1.8.0) and indexed. Mitochondrial reads were removed using SAMtools (1.9-20190828-foss-2018a) and BigWig files were created (deepTools/3.3.1-foss-2018a-Python-3.7.4). ATAC-seq peaks were identified and visualized using MACS2 peak calling (2.1.2.1-foss-2018a-Python-2.7.16) with […] BAMPE parameters. Finally, BED files were created from broadPeak files using BEDTools (2.28.0-foss-2018a).

melanoma MES cells = assay: Bulk RNA sequencing after ARV-771 exposure; format: cell-based, human; settings: 50 nM ARV-771; for antigen presentation program expression: melanoma MES cells
Procedure: Approximately 2*10^5 cells were plated in a 6-well plate. For knockdown experiments, these were transfected with the described siRNA pool 24 and 72 hours after plating and collected 24 hours after the second transfection. For inducible TCF4 experiments, cells were treated with 2 ng/ml doxycycline (Sigma-Aldrich, Cat #D9891) every 48 hours and collected 96 hours after plating. For ARV-771 experiments, cells were treated with 50 nM ARV-771 (Bioconnect, Cat #HY-100972) 24 hours after plating and collected 96 hours after plating. RNA was extracted using the RNA NucleoSpin extraction kit (Macherey&Nagel) according to the manufacturer's instructions.
The RNA integrity was monitored using Bioanalyzer analysis. 5 ng of RNA per sample was reverse-transcribed and amplified using a modified version of the SMARTseq2 protocol, previously described in Rambow et al. 2018 (Cell 174:843-855.e19). Prior to generating sequencing libraries using the NexteraXT kit (Illumina, Cat #FC-131-10), cDNA profiles were monitored using the Bioanalyzer. Sequencing was performed on a Illumina Nextseq500 platform. Differential gene expression analyses were executed using the DeSeq2 pipeline.

MM029 cells = assay: Proliferation assay (IncuCyte cell confluency); format: cell-based, human; settings: ARV-771 300 nM with dabrafenib 50 nM, trametinib 10 nM, FIG. 9
Procedure: Roughly 400 MM029 cells per well were plated in a 96-well plate and treated with ARV-771 300 nM and/or Dabrafenib 50 nM+Trametinib 10 nM after 24 hours. Cells were imaged using the IncuCyte ZOOM System (Essen Bioscience) and automated cell confluency measurements were made using images taken at 2 hour intervals, for the duration of the experiments. Five technical replicates were averaged and statistical significance was assessed (paired, two-tailed Student's t-test).

TCF4 [1] = settings: B cell lymphoma and BPDCN; Jain et al. 2019, Ceribelli et al. 2016; cited from earlier work
TCF4 [2] = assay: RT-qPCR of TCF4 expression after ARV-771; format: cell-based, human; settings: MM057 cells; collected 48 hours after plating
Procedure: MM057 cells were plated and treated with the specified dose of ARV-771, as described above 48 hours after plating, cells were collected, resuspended in RA1 lysis buffer using the RNA NucleoSpin extraction kit (Macherey&Nagel) and processed according to manufacturer's instructions. RNA was quantified using a ThermoScientific NanoDrop 1000 and 500 to 2000 ng was reverse transcribed with a High-Capacity cDNA Reverse Transcription Kit (Life Technologies). qPCRs were run using the SensiFAST probe No-ROX kit (Bioline, Cat #BIO-86005) on a Roche Life Science LightCycler 384. Data processing with Biogazelle Qbase+3.1 software relied on normalization with a minimum of two reference genes.

Q: Which results are given for `Cc1ncsc1-c1ccc([C@H](C)NC(=O)[C@@H]2C[C@@H](O)CN2C(=O)[C@@H](NC(=O)COCCCOCCNC(=O)C[C@@H]2N=C(c3ccc(Cl)cc3)c3c(sc(C)c3C)-n3c(C)nnc32)C(C)(C)C)cc1` [ARV-771]?
A: chromatin accessibility upstream of the TCF4 locus (TCF4 locus): decreased chromatin accessibility upstream of the TCF4 locus; expression of genes from the MES signature (melanoma MES cells): strongly downregulated; expression of genes from the MITF-dependent MEL signature (melanoma MES cells): upregulated; transcriptional changes compared with TCF4 silencing (melanoma MES cells): recapitulated most of the transcriptional changes observed upon TCF4 silencing; antigen presentation program expression (melanoma MES cells): upregulated; antigen presentation program expression (melanoma MES cells; listed as ARV-711): unleashes the expression of antigen presentation machinery and HLA-genes; overall transcriptional reprogramming effect upon BET-inhibition (melanoma MES cells; mesenchymal-like vs melanocytic cell lines): far more drastic in mesenchymal-like than in melanocytic cell lines; sensitivity to BRAF- and MEK-inhibition (cell growth) (MM029 cells): increased sensitivity to BRAF- and MEK-inhibition; TCF4 expression (TCF4 [1]): decrease its expression; TCF4 expression (TCF4 [2]): dose-dependent decrease in TCF4 expression
